In patent US6806359B1, “Hormone receptor compositions and methods” (The Salk Institute for Biological Studies, priority 1986, dated 2004):
Entries after “also recorded” stand apart in the source; their conditions may differ.

How the values were obtained:
MR = details: read-out: reported KD values for aldosterone binding to MR; cited from earlier work
rTR alpha = biological target: T1, rTR alpha (Rattus norvegicus, UniProt P63059); experiment: ^125I-T3 binding to in vitro translated rTR alpha (Scatchard and competition); details: excess competitor
T1 construct: made in house; host or cells: rabbit reticulocyte lysate (SP6 transcripts of rbeA12B)
T1 sequence (P63059 1-410 isoform P63059-2): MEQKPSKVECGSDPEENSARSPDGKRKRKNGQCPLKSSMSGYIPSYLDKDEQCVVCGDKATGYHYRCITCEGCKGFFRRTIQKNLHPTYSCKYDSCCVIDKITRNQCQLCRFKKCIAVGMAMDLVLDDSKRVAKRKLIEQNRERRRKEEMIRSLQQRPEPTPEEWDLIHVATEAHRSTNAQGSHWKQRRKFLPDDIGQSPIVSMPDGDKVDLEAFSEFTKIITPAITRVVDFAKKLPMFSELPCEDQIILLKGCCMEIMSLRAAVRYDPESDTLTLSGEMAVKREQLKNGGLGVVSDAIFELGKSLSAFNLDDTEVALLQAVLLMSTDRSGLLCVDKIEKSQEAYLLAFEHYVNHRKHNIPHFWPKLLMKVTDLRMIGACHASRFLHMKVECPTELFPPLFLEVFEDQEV
From the text: In vitro translation and thyroid hormone binding of rTR alpha FIG. 69 rTR alpha was transcribed in vitro and translated in a rabbit reticulocyte lysate. […] Lane 1, no added RNA; lane 2, rbeA12, which contains the entire 5′ untranslated region; lane 3, rbeA12B, which contains only 97 bp of 5′ untranslated sequence. […] Samples from rbeA12B programmed lysates were mixed with increasing concentrations of unlabeled thyroid hormone or analogs to compete with labeled hormone. […] In vitro transcription and translation and hormone binding were performed as described (22, 23).
23. For in vitro transcription, the entire EcoRI insert of rbeA12 was cloned into pGEM1 (Promega Biotec). […] For thyroid hormone binding, transcriptions were performed with SP6 polymerase and 5 to 10 micrograms of rbeA12B linearized with SstI. […] Thyroid hormone binding for both the Scatchard and competition analyses were determined in the same manner, except that unlabeled protein was used for the Scatchard analysis. […] Specific hormone binding was determined by adding a 1000-fold excess of unlabeled hormone and assayed by counting radioactivity eluting in the excluded volume from a Sephadex G-25 fine (Pharmacia) 0.9-by 4.0-cm. column.

hMR [1] = biological target: T2, hMR (Homo sapiens, UniProt P08235); experiment: Transcriptional activation of MMTV LTR (GMCAT) by hMR in transfected CV1 cells; format: cell-based; parameters: expressed in transfected cells; details: pRShMR + GMCAT, charcoal-treated serum, 10 nM steroid
T2 sequence (P08235 1-984): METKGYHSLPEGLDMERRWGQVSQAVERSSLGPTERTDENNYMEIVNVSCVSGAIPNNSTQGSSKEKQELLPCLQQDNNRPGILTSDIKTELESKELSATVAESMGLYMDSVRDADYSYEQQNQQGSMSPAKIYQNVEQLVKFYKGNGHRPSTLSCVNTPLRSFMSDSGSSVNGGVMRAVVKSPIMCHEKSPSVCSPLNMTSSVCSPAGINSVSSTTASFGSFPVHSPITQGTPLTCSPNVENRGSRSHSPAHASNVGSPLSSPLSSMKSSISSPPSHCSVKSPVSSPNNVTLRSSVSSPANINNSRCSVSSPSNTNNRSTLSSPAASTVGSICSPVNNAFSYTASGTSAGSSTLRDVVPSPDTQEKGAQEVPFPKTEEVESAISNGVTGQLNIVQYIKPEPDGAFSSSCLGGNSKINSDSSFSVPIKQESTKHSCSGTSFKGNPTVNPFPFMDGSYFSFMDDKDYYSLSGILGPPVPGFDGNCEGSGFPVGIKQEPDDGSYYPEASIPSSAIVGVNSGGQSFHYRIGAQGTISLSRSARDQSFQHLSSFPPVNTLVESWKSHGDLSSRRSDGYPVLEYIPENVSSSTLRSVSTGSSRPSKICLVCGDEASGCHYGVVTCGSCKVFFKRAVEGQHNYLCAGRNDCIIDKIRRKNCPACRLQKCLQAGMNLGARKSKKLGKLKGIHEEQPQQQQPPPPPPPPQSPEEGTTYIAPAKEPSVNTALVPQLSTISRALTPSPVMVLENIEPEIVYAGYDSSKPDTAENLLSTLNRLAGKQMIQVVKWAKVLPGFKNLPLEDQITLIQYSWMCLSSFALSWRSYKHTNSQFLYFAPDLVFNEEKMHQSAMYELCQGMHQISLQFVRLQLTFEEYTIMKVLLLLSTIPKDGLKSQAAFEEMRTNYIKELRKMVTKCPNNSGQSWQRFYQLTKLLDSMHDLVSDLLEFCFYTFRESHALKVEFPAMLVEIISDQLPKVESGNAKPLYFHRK
From the text: Steroid hormone action is characterized by hormone-dependent modulation of target gene transcription. The assay for transcriptional regulation by transfected hGR in CVI cells (see Experimental Section II) was adapted to hMR (FIGS. 42 and 44). The expression plasmid used for steroid-binding assays, pRShMR, was cotransfected with a reporter plasmid called GMCAT, which contains the MMTV LTR linked to the bacterial gene for chloramphenicol acetyltransferase (CAT). Thus CAT activity provides an enzymatic assay for the transcriptional activity of the MMTV promoter. The MMTV promoter contains several glucorticoid response elements (GRE's), enhancer-like DNA sequences that confer glucocorticoid responsiveness via interaction with the GR (21).
FIG. 42 Structure of GMCAT. This plasmid was cotransfected with the steroid receptors as a reporter gene for hormone-dependent transcriptional activation (see Experimental Section II). […] Transfected cells were maintained in DMEM with 5 percent fetal calf serum. Serum was treated with charcoal to eliminate free steroids in subsequent experiments so that the effects of exogenous steroids could be determined. […] (D) AC, 3-acetylchloramphenicol; C, chloramphenicol. Two days after transfection by calcium phosphate coprecipitation (43), extracts were prepared for CAT assay (44). The assays were incubated for 6 hours with 50 micrograms of protein extract.

GR [2] = biological target: T3, GR (Homo sapiens, UniProt P04150); experiment: Transcriptional activation of MMTV LTR (GMCAT) by hGR in transfected CV1 cells; format: cell-based; parameters: The expression vector linking the RSV LTR to full length hGR cDNA (pRShGR alpha) was designed to obtain high levels of expression; expressed in transfected cells; host or cells: CV1 monkey kidney cells, cotransfected with GMCAT; details: pRShGR alpha + GMCAT, 10 nM steroid
T3 sequence (P04150 1-777): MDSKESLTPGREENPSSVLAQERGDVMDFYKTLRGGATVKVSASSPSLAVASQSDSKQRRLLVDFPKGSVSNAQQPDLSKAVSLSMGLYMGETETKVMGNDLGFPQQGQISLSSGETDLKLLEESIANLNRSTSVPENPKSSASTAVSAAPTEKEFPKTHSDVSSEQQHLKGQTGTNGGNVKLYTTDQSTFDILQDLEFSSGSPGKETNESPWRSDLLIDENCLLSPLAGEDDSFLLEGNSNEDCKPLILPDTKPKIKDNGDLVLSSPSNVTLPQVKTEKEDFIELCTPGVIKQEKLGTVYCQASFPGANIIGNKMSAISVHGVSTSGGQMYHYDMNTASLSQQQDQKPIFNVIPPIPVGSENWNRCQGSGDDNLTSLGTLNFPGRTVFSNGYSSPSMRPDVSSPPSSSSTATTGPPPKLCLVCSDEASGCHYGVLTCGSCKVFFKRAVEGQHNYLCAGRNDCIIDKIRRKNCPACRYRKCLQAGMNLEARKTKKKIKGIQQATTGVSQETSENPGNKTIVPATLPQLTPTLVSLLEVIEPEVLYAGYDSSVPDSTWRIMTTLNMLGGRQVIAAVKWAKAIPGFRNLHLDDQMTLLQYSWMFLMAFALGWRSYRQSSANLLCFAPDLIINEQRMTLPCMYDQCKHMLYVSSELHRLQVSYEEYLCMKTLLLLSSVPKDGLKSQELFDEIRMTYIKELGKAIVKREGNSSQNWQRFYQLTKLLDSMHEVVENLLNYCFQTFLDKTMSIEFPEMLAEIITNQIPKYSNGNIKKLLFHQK

GR [3] = biological target: T3, GR; details: read-out: KD for binding to GR; cited from earlier work
[4] = biological target: T4, alpha-hGR (human glucocorticoid receptor) translated in vitro (Homo sapiens, UniProt P04150); experiment: Steroid binding (^3H-triamcinolone acetonide) of hGR translated in vitro in reticulocyte lysate, competition by unlabeled steroids; details: 100-fold excess unlabeled competitor (15 microM), 2 h at 0° C.
T4 construct: We describe the use of the SP6 transcription vector system to generate analytical amounts of full-length protein; made in house; host or cells: rabbit reticulocyte lysate (cell-free translation of SP6 transcripts)
T4 sequence (P04150 1-777): T3 sequence (P04150 1-777)
Method: Steroid-binding of alpha-hGR translated in vitro. […] Bars represent bound ^3H-triamcinolone acetonide (TA) determined with a 100-fold excess of various steroid competitors; 100% competition was determined using unlabeled TA as competitor. The values represent the mean of triplicate determinations, with error bars showing […].
Binding assays were performed in 100 microliters containing 10 mM Tris-HCl pH 7.4, 100 mM NaCl, 1 mM EDTA, 10 mM sodium molybdate, 10 dithiothreitol, […] ^3H-TA (20 Ci mmol^−1, Amersham) and 10 microliters translation mixture or 100 microgram fresh 1M-9 cytosol. Unlabeled steroid competitor (15 microM) was added as indicated. After 2 h at 0° C., samples were extracted twice for 5 min. each with 5 microliter of 50% dextran-coated charcoal to remove unbound steroid, and counted.

hMR [5] = biological target: T2, hMR; experiment: [^3H]aldosterone binding and steroid competition in extracts of pRShMR-transfected COS cells; parameters: expressed in transfected cells; host or cells: COS cells transfected with pRShMR (DEAE-dextran); details: 1-, 10-, or 100-fold molar excess of unlabeled steroid
Method: Ligand specificity of the hMR protein was determined by preparing cytosol extracts from COS cells transfected with pRShMR. Two days after transfection, cells were harvested, and hormone binding was measured by a dextran-treated charcoal assay. […] This provided a measure of the relative affinity of each of these steroids for hMR.
Steroid-binding properties of expressed hMR. FIG. 38 Structure of pRShMR, the hMR expression plasmid (41). […] Each point was assayed in triplicate with 100 micrograms of extract protein in a 200-microliter incubation at 0° C. for 2.5 hours. […] The results of two independent trials representative of these competition experiments are shown. Cold competitor was present in 1-, 10-, or 100-fold molar excess. […] Subconfluent COS cells were transfected by the DEAE-dextran method (42) with 10 micrograms of pRShMR per dish. Cells were maintained for 2 days in DMEM (Dulbecco's modification of Eagle's minimum essential medium) with 5 percent charcoal-treated fetal calf serum, then harvested in […] tris-HCl. (pH 7.8), 10 nM NaCl, 1 mM EDTA, 10 mM Na2MoO4, 5 mM dithiothreitol, antipain (5 microgram/ml), leupeptin (5 microgram/ml), and 500 microM phenylmethylsulfonyl fluoride. After centrifugation at 15,000×g for 10 minutes, extracts were adjusted to 100 mM NaCl and 5 percent glycerol before binding. […] After centrifugation at 15,000×g for 2 minutes at 40C, tritium in supernatant was quantified by liquid scintillation spectrophotometry.

Row | SMILES | Kd (MR) | competition for T3 binding to rTR alpha by excess compound (rTR alpha) | hMR-mediated CAT activity response (in words) (hMR [1]) | hGR-mediated CAT activity response (in words) (GR [2]) | Kd (GR [3]) | competition with ^3H-TA binding to in vitro-synthesized alpha-hGR by excess unlabeled steroid [4] | relative affinity for hMR by competition with 5 nM [^3H]aldosterone (in words) (hMR [5]) | relative affinity for hMR by competition with 5 nM [^3H]aldosterone (in words) (hMR [5]; listed as hydrocortisone)
1 | C[C@]12CCC(=O)C=C1CC[C@@H]1[C@@H]2[C@@H](O)C[C@]2(C=O)[C@@H](C(=O)CO)CC[C@@H]12 [aldosterone] | 0.5 to 3 nM | no competition | became responsive; also recorded: approximately equivalent | did not respond; also recorded: insensitive | 25 to 65 nM | – | – | –
2 | C[C@]12CCC(=O)C=C1CC[C@@H]1[C@@H]2[C@@H](O)C[C@@]2(C)[C@H]1CC[C@]2(O)C(=O)CO [cortisol] | – | – | also observed | – | – | could be competed with | compete as effectively as aldosterone itself | very similar affinities
